# How the values were obtained:
# Galectin-1 = Galectin-1 (Homo sapiens, UniProt P09382); test: Inhibitory Activity Assay
# Method: (§1) Briefly, compounds are serially diluted in DMSO (working dilutions). ASF-coated 384well plates are supplemented with 22.8 μL/well of biotinylated hGal-3 or hGal-1 in assay buffer (i.e. 300-1000 ng/mL biotinylated hGal-3 or hGal-1) to which 1.2 μL of compound working dilutions are added and mixed. Plates are incubated for 3 hours at 4° C., then washed with cold assay buffer (3×50 uL), incubated for 1 hour with 25 μL/well of a streptavidin-peroxidase solution (diluted in assay buffer to 80 ng/mL) at 4° C., followed by further washing steps with assay buffer (3×50 uL). Finally, 25 μL/well of ABTS substrate is added.
# Galectin-3 = Galectin-3 (Homo sapiens, UniProt P17931); test: Inhibitory Activity Assay
# Method: as §1
# Sequence of Galectin-1 (P09382 whole entry): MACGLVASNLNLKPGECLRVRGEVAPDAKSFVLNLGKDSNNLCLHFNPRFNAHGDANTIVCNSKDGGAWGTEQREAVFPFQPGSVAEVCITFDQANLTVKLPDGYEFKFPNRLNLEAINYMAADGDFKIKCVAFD
# Sequence of Galectin-3 (P17931 whole entry): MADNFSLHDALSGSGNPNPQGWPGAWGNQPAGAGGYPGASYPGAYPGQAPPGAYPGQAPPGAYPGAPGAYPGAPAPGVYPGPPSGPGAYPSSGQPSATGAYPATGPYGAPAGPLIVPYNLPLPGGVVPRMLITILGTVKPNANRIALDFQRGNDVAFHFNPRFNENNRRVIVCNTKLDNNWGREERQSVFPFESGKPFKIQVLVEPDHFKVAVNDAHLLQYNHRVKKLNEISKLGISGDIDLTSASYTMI
IC50 (Galectin-1) [µM],IC50 (Galectin-3) [µM],SMILES
4.37,0.06,"COC(=O)C(C)(C)n1cc(C[C@H]2OC(CO)=C(O)C(N3C[C@H](c4ccc(C)c(F)c4F)NN3)=C2OC)nn1 [US20240109930, Example 1.1.10.]"
1.4,0.03,"CCC1(c2cn(C[C@H]3O[C@H](CO)[C@H](O)[C@H](n4cc(-c5ccc(Cl)c(F)c5F)nn4)[C@H]3OC)nn2)COC1 [US20240109930, Example 2.2.38.]"
–,0.03,"CO[C@@H]1[C@@H](n2cc(-c3ccc(Cl)c(F)c3F)nn2)[C@@H](O)[C@@H](CO)O[C@@H]1Cc1cn(C2COCCC2(F)F)nn1 (some centres undefined) [US20240109930, Example 2.1.73.A]"
2.3,0.06,"CO[C@@H]1[C@@H](n2cc(-c3ccc(Cl)c(F)c3F)nn2)[C@@H](O)[C@@H](CO)O[C@@H]1Cn1cc(C2(CF)CC2)nn1 [US20240109930, Example 2.2.46.]"
–,0.05,"CO[C@@H]1[C@@H](n2cc(-c3ccc(Cl)c(F)c3F)nn2)[C@@H](O)[C@@H](CO)O[C@@H]1Cc1cn([C@@H]2CC[C@H]2F)nn1 [US20240109930, Example 2.1.88.C]"
2.57,0.06,"CO[C@@H]1[C@@H](n2cc(-c3ccc(Cl)c(F)c3F)nn2)[C@@H](O)[C@@H](CO)O[C@@H]1Cn1cc([C@H]2C[C@@H](NC(=O)OC(C)(C)C)C2)nn1 [US20240109930, Example 2.2.86.]"
2.26,0.06,"COC(=O)C(C)(C)n1cc(C[C@H]2OC(CO)=C(O)C(N3C[C@H](c4ccc(Cl)c(F)c4F)NN3)=C2OC)nn1 [US20240109930, Example 2.1.10.]"
1.32,0.03,"COC1=C(n2cc(-c3ccc(C#N)c(F)c3F)nn2)C(O)=C(CO)O[C@@H]1C[C@H]1CN(C2(C(F)F)CCC2)NN1 [US20240109930, Example 5.1.43.]"

# — BindingDB's records for patent US20240109930 (Idorsia Pharmaceuticals, 2024)
